Results reported in patent US11725000B2, “Apoptosis inhibitors” (National Institute of Biological Sciences, Beijing, priority 2017, dated 2023).
pEC50: −log10 of the molar value.

system: U2OS_Bim cells; test: Apoptosis inhibition assay (Bim-induced apoptosis, cell viability by ATP level); type: cell-based; conditions: U2OS_Bim cells; means of duplicates; numbering of Tables 4a/4b
Method in brief: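 Apoptosis was triggered by doxycycline (0.1 μg/mL) induction of Bim, one hour after compound addition to U2OS_Bim cells. Survival was measured after 24 h from cellular ATP (CellTiter-Glo), relative to DMSO, with zVAD at 20 μM as rescue control. Data are duplicate means, some estimated from preliminary results.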

Row | SMILES | pEC50
1 | C#CCOc1cc(Cn2cc(-c3cc(C(F)(F)F)nc(S(C)(=O)=O)n3)ccc2=O)ccc1OC [Compound 129, 1-(4-methoxy-3-(prop-2-yn-1-yloxy)benzyl)-5-(2-(methylsulfonyl)-6-(trifluoromethyl)pyrimidin-4-yl)pyridin-2 (1H)-one] | 6.00 to 9.00
2 | C#CCOc1ccc(Cn2cc(-c3cc(C(F)(F)F)nc(S(C)(=O)=O)n3)ccc2=O)cc1OC [Compound 130, 1-(3-methoxy-4-(prop-2-yn-1-yloxy)benzyl)-5-(2-(methylsulfonyl)-6-(trifluoromethyl)pyrimidin-4-yl)pyridin-2 (1H)-one] | 6.00 to 9.00

same assay, conditions: U2OS_Bim cells; means of duplicates; numbering of Tables 4a/4b; read-out: EC50

Row | SMILES | pEC50
3 | C[S+]([O-])c1nc(-c2ccc(=O)n(Cc3ccc(Cl)cc3F)c2)cc(C(F)(F)F)n1 (stereo not shown) [Compound 125, 1-(4-chloro-2-fluorobenzyl)-5-(2-(methylsulfinyl)-6-(trifluoromethyl)pyrimidin-4-yl)pyridin-2 (1H)-one] | 5.00 to 6.00
4 | COc1ccc(Cn2cc(-c3cc(C(F)(F)F)nc(S(C)(=O)=O)n3)ccc2=O)c(Cl)c1 [Compound 126, 1-(2-chloro-4-methoxybenzyl)-5-(2-(methylsulfonyl)-6-(trifluoromethyl)pyrimidin-4-yl)pyridin-2 (1H)-one] | 6.00 to 9.00
5 | COc1ccc(Cn2cc(-c3cc(C(F)(F)F)nc(S(C)(=O)=O)n3)ccc2=O)cc1OC [Compound 127, 1-(3,4-dimethoxybenzyl)-5-(2-(methylsulfonyl)-6-(trifluoromethyl)pyrimidin-4-yl)pyridin-2 (1H)-one] | 6.00 to 9.00
6 | COc1ccc(Cn2cc(-c3cc(C(F)(F)F)nc([S+](C)[O-])n3)ccc2=O)cc1OC (stereo not shown) [Compound 128, 1-(3,4-dimethoxybenzyl)-5-(2-(methylsulfinyl)-6-(trifluoromethyl)pyrimidin-4-yl)pyridin-2 (1H)-one] | 6.00 to 9.00
7 | COc1cc(Cn2cc(-c3cc(C(F)(F)F)nc(S(C)(=O)=O)n3)ccc2=O)ccn1 [Compound 135, 1-((2-methoxypyridin-4-yl)methyl)-5-(2-(methylsulfonyl)-6-(trifluoromethyl)pyrimidin-4-yl)pyridin-2 (1H)-one] | 6.00 to 9.00
8 | CS(=O)(=O)c1nc(-c2ccc(=O)n(Cc3ccc4c(c3)OCO4)c2)cc(C(F)(F)F)n1 [Compound 136, 1-(benzo[d][1,3]dioxol-5-ylmethyl)-5-(2-(methylsulfonyl)-6-(trifluoromethyl)pyrimidin-4-yl)pyridin-2 (1H)-one] | 6.00 to 9.00
9 | CS(=O)(=O)c1nc(-c2ccc(=O)n(Cc3ccc4c(c3Br)OCO4)c2)cc(C(F)(F)F)n1 [Compound 137, 1-((4-bromobenzo[d][1,3]dioxol-5-yl)methyl)-5-(2-(methylsulfonyl)-6-(trifluoromethyl)pyrimidin-4-yl)pyridin-2 (1H)-one] | 6.00 to 9.00

The remaining lines, values ahead:

Row | pEC50 | SMILES
10 | 6.00 to 9.00 | CS(=O)(=O)c1nc(-c2ccc(=O)n(Cc3ccc(-c4ccccc4)cc3)c2)cc(C(F)(F)F)n1 [Compound 131, 1-([1,1′-biphenyl]-4-ylmethyl)-5-(2-(methylsulfonyl)-6-(trifluoromethyl)pyrimidin-4-yl)pyridin-2 (1H)-one]
11 | 6.00 to 9.00 | CS(=O)(=O)c1nc(-c2ccc(=O)n(Cc3ccc(-n4cccn4)cc3)c2)cc(C(F)(F)F)n1 [Compound 132, 1-(4-(1H-pyrazol-1-yl)benzyl)-5-(2-(methylsulfonyl)-6-(trifluoromethyl)pyrimidin-4-yl)pyridin-2 (1H)-one]
12 | 5.00 to 6.00 | CS(=O)(=O)c1nc(-c2ccc(=O)n(Cc3cccc4ccccc34)c2)cc(C(F)(F)F)n1 [Compound 133, 5-(2-(methylsulfonyl)-6-(trifluoromethyl)pyrimidin-4-yl)-1-(naphthalen-1-ylmethyl)pyridin-2 (1H)-one]
13 | 5.00 to 6.00 | CS(=O)(=O)c1nc(-c2ccc(=O)n(Cc3ccc4ccccc4c3)c2)cc(C(F)(F)F)n1 [Compound 134, 5-(2-(methylsulfonyl)-6-(trifluoromethyl)pyrimidin-4-yl)-1-(naphthalen-2-ylmethyl)pyridin-2 (1H)-one]
